These results are taken from US20230174581A1, “PROCESSES AND AGENTS FOR GLAUCOMA” (AUFBAU MEDICAL INNOVATIONS LIMITED, priority 2020, published 2023).

The nature of test [1]: Relative IOP versus placebo in bovine vitreous humor (BVH) glaucoma model, microfluidic chip device. The procedure:
Bovine vitreous after homogenization was used to model human disease because it mimicked elevated IOP in humans.
A solution of the agent compound was prepared by weighing out the compound in a microcentrifuge tube and dissolving the solid material in lx PBS buffer at pH 7.2. For a compound that was less soluble in water, a stock solution was prepared in ethanol or DMSO, and then diluted ten-fold to achieve the final concentration with a 10% ethanol or DMSO vehicle. Heat (37° C.) and vortex mixing were applied to the solution of the compound to facilitate dissolution.
To determine the effect of the compound on intraocular pressure (IOP), the compound was tested in bovine vitreous humor (BVH) glaucoma model in the microfluidic chip device.
A solution of 25% homogenized bovine vitreous humor (BVH) was prepared by diluting 100% homogenized BVH with PBS buffer. 50 uL BVH was aliquoted into 0.5 mL PCR tubes. 50 uL of the solution of the compound was added to the BVH, bringing the BVH total concentration to 12.5%. The sample was briefly vortexed and then incubated at 37° C. overnight. For a control experiment, 50 uL of either PBS buffer or PBS with 10% ethanol or DMSO were prepared and incubated with 25% BVH in the same conditions.
The test BVH solution was introduced into the reservoir of the device. A fluidic probe was attached to the inlet of the microfluidic chip and a flow rate of 2ul/min was established with PBS as the source fluid. Once fluid began exiting from the outlet of the chip and a steady flow of 2 ul/min was achieved, the flow rate and the pressure change within the microfluidic chip were recorded. Baseline flow rate and pressure readings were recorded for 5 minutes, after which 7 ul of the test BVH solution was injected into the chip through a sample injector. Recording of the flow rate and pressure change was continued for 50 additional minutes after the sample injection. Recording was stopped after 55 minutes. The relative change in chip pressure for the entire course of the experiment was plotted on a graph.

The nature of test [2]: Dose-response of IOP reduction in bovine vitreous humor (BVH) glaucoma model, microfluidic chip device. The following applies: 12.5% BVH, incubated at 37° C. for 1 hour; 7 ul injected; read-out: EC50 for treatment of glaucoma in a bovine vitreous model (IOP reduction). The procedure: Bovine vitreous after homogenization was used to model human disease because it mimicked elevated IOP in humans. […] Once it was added to BVH, the final water concentration was 0.5%. […] Once added to BVH, the final DMSO concentration was 0.5%. […] The pellet was resuspended with PBS and concentrated by 2.5X fold. For treatment of BVH with compound, 25 ul of enriched BVH was added to 25 ul of Compound and incubated for 1 hour in a thermocycler at 37° C., then 5 ul of 5 mM CFSE was added, and the sample incubated in a thermocycler at 37° C. for 30 minutes. EC50 was estimated by plotting the logarithmic functions of the micromolar concentration of the drug in the x axis against the percent of maximal response in the y axis. The maximal response was taken as the value of the response for the highest drug concentration. The response was calculated by taking the absolute difference between the control and test value for each concentration. The compound colistin sulfate was tested in bovine vitreous humor (BVH) glaucoma model in a microfluidic chip device. A solution of 25% homogenized BVH in PBS buffer was prepared and diluted with an equal amount of a solution of the compound, so that the total BVH concentration was 12.5%. The sample was vortexed and incubated at 37° C. for 1 hour. […] The test compound-BVH solution was introduced into the reservoir of the microfluidic chip device and flow rate and pressure change were recorded. Various concentrations of the compound were tested for effects on the treatment of bovine vitreous humor. 7 ul of each test solution was injected into the microfluidic chip through a sample injector. Recording of the flow rate and pressure change was continued for 50 additional minutes after the sample injection. The relative change in chip pressure for the entire course of the experiment was obtained. […] The EC50 value was taken as the point on the x-axis at which the logarithmic function of the micromolar concentration of the compound produced half-maximal response. The logarithmic function of the micromolar concentration of the drug was plotted on the x axis against the percent of maximal response on the y axis. Maximal response was obtained by taking the value of the response for the highest drug concentration. The response was calculated by taking the absolute difference between the control and test value for each concentration.

A short description of test [3]: Relative IOP in microfluidic device, human glaucoma model (POAG aqueous humor). The settings on record: pre-incubated at 37° C. for 24 hours, placebo buffered saline. The procedure: The agent was tested by controlling flow and measuring relative IOP using in a device of this invention. The agent was compared against placebo (buffered saline) by preparing each in aqueous humor from a patient with primary open angle glaucoma and pre-incubating at 37° C. for 24 hours. The timepoint of injection into the device is denoted by an arrow and the letter “a.” Referring to FIG. 25, the IOP for placebo (dashed line) increased greatly after injection of the placebo sample. The IOP rose to a maximum pressure of about 40 mm Hg. To the contrary, the IOP after injection of the agent colistin sulfate in human aqueous humor (solid line) was markedly lower than for placebo, up to about 40% lower, and the difference was sustained.
Example 1. Isolation of extracellular matrix bodies in a microfluidic device. […] The microfluidic channel flow rate was held constant at […] per minute, and the baseline system pressure was measured using an external pressure sensor. The human aqueous humor sample was injected at timepoint denoted by an arrow and the letter “a.” The pressure steadily rises to a maximum of about 41 mm Hg at 27 minutes. […] The protein content in the aqueous humor was labeled with a fluorescent marker, carboxyfluorescein succinimidyl ester (CFSE, marked with black arrows in FIG. 2). The circles are pillars in the restriction channel.
Example 2. […]

Setting [4] is: pre-incubated at 37° C. for 24 hours, placebo buffered saline, concentration not given.

pEC50: −log10 of the molar value. Structures can show the parent of a compound that is named as a salt. Where a SMILES comes first, the peptide text is derived from it. Bridges are numbered along the chain shown (N, C = ends). [ ]: non-standard residue; d: D form. The star is where a group is joined. Octanoyl(6-Me) = CCC(C)CCCCC(=O)*; Dab = NCC[CH](N)C(=O)O A value given as a limit tells only on which side of the number the result lay.

With `CCCCCCCCCCCCCCCC[n+]1ccccc1` [cetylpyridinium chloride, 1-hexadecylpyridin-1-ium], in test [1] (37° C. 24 hours, cetylpyridinium chloride 43 mg/ml), the “IOP after injection of agent, lower than for placebo” value (“IOP … lower than for placebo” below) is given as at most 100%.
Turning to `CCC(C)CCCCC(=O)NC(CCN)C(=O)NC(C(=O)NC(CCN)C(=O)NC1CCNC(=O)C(C(C)O)NC(=O)C(CCN)NC(=O)C(CCN)NC(=O)C(CC(C)C)NC(=O)C(Cc2ccccc2)NC(=O)C(CCN)NC1=O)C(C)O` (centres unmarked) [polymyxin B sulfate] ({Octanoyl(6-Me)}-[Dab]T[Dab][Dab][Dab]FL[Dab][Dab]T; lactam 4-C; configuration not given here), the pEC50 in test [2] is 8.37. The “IOP … lower than for placebo” value in test [1] (37° C. 24 hours, Polymyxin B sulfate 10 mg/ml) amounted to 78%.
In the case of `CCCCCCCCCCCCOS(=O)(=O)[O-].[Na+]` [sodium dodecyl sulfate], the “IOP after injection of compound compared with placebo” value in test [1] (37° C. 24 hours, sodium dodecyl sulfate 24 mg/ml) is “significantly higher than for placebo”.
Consider H-TPPT-NH2 [rapastinel TFA], for which the pEC50 in test [2] was 7.74. For the same compound, in test [1] (setting [4]), the “IOP … lower than for placebo” value is “up to 82%”.
For the compound `Nc1ncnc2c1ncn2CCOCP(=O)(O)O` [adefovir, ((2-(6-amino-9H-purin-9-yl)ethoxy)methyl)phosphonic acid], the negative-log EC50 (pEC50) in test [2] is 6.77.
`CC(C)(C)NC(=O)N[C@H](C(=O)N1C[C@H]2[C@@H]([C@H]1C(=O)NC(CC1CCC1)C(=O)C(N)=O)C2(C)C)C(C)(C)C` (some centres unmarked) [boceprevir]: the negative-log EC50 (pEC50) in test [2] is 4.95. Also, the “IOP … lower than for placebo” value in test [1] (setting [4]) is given as “up to 67%”.
The corresponding values for `CC[C@@H](C(N)=O)N1CCCC1=O` [levetiracetam] are 6.67 and “up to 62%”.
As to `CC(C)N(CCNC(=O)CN1CCCC1=O)C(C)C` [pramiracetam, N-[2-[di(propan-2-yl)amino]ethyl]-2-(2-oxopyrrolidin-1-yl)acetamide], the “IOP … lower than for placebo” value in test [1] (setting [4]) is reported as “up to 44%”.
As to `NC[C@@H]1OC(O[C@H]2[C@@H](O)[C@H](O[C@@H]3[C@@H](O)[C@H](N)C[C@H](N)[C@H]3OC3O[C@H](CN)[C@@H](O)[C@H](O)[C@H]3N)O[C@@H]2CO)[C@H](N)[C@@H](O)[C@@H]1O` (some centres unmarked) [neomycin], the “IOP … lower than for placebo” value in test [1] (37° C. 24 hours, neomycin sulfate 35 mg/ml) worked out at 72%.
Regarding `CC(C)(C)C(=O)OCOP(=O)(COCCn1cnc2c(N)ncnc21)OCOC(=O)C(C)(C)C` [adefovir dipivoxil], the “IOP … lower than for placebo” value in test [1] (setting [4]) was “up to 73%”.
As for heparin sodium, the “IOP … lower than for placebo” value in test [1] (37° C. 24 hours, heparin sodium 10 mg/ml) is reported as 32%.
Regarding colistin sulfate, in test [2], the negative logarithm of the EC50 (pEC50) is 9.44. Also, the “IOP … lower than for placebo” value in test [1] (setting [4]) is listed as “up to 97%”; in test [3] it was “up to 40%”.
With `COC(=O)N[C@H](C(=O)N1CCC[C@H]1C(=O)Nc1ccc([C@@H]2CC[C@@H](c3ccc(NC(=O)[C@@H]4CCCN4C(=O)[C@@H](NC(=O)OC)C(C)C)cc3)N2c2ccc(C(C)(C)C)cc2)cc1)C(C)C` [ombitasvir], the “IOP after injection of compound compared with placebo” value in test [1] (37° C. 24 hours, concentration not given) is given as “significantly higher than for placebo”.
For the compound `CN(C)CCCN1c2ccccc2Sc2ccc(C(F)(F)F)cc21` [triflupromazine], the “IOP … lower than for placebo” value in test [1] (setting [4]) is on record as “up to 40%”.

What is called pEC50 is the negative decadic logarithm of the EC50, by convention in mol/L.
